Consider 21 compounds from article PMC12484522, “Neuroprotective effects of chemical constituents from Nicotiana tabacum L. in Parkinson’s disease” (Natural Products and Bioprospecting, 2025).

Entries after “also recorded” stand apart in the source; their conditions may differ. Read-outs that look alike come from different tables or passages of the source.

The target in data set [1] is T1, MAO-B (Homo sapiens, UniProt P27338).
T1 sequence (P27338 1-520): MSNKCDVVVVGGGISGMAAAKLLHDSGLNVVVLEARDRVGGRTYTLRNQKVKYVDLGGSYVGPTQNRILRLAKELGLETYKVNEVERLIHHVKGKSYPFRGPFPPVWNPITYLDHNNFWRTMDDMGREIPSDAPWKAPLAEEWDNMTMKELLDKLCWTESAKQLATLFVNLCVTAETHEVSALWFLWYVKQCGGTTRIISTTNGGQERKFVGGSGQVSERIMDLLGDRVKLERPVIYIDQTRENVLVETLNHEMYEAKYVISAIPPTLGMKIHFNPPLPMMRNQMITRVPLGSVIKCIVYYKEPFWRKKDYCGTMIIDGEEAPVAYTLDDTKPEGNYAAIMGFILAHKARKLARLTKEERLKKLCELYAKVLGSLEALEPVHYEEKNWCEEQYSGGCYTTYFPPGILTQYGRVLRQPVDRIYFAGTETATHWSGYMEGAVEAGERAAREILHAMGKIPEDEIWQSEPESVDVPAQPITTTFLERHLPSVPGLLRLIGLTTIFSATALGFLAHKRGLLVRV
Put plainly: MAO-B inhibition assay (kynuramine, fluorescence). The class given is biochemical.
Procedure: In preparing the microplates, 50 μL of MAO-B (2.5 U/mL) was combined with 100 μL of the test compounds at different concentrations. This mixture was incubated at 37 °C for 10 min. […] Next, 50 μL of kynuramine (0.2 mM) sourced from Macklin in Shanghai, China, was added to the mixture. The resulting mixture was incubated at 37 °C for an additional 30 min. The reaction was halted by adding 80 μL of 2 N NaOH. Ultimately, the enzyme activity was measured using a microplate reader, with the excitation and emission wavelengths set at 310 nm and 400 nm, respectively.

Data set [2] has as its target T1, MAO-B. In words: Kinetic studies of MAO-B inhibition (Lineweaver–Burk plots). Type of data set: biochemical. As to the method:
The kinetic study of MAO-B inhibition was the Lineweaver–Burk plot, which was performed using the Lineweaver–Burk curve method. […] Kinetic characterization of their MAO-B inhibition was recorded 20 min after initiation. Constants Kis and Ki were calculated using the Lineweaver–Burk plots.

The target of another data set is murine MAO-B. Details: method as in PMID 26796202. The settings on record: cited from earlier work.
The subject of the next data set is MAO-B over MAO-A. The settings on record: cited from earlier work.
In another data set the target is human MAO-B. More on the design: method as in PMID 26796202. The settings on record: selective and reversible inhibition; cited from earlier work.
Data set [3] relates to dopamine levels and striatal DOPAC. Details: method as in PMID 26796202. The settings on record: intraperitoneal, 80 mg/kg; cited from earlier work.
Data set [4] can be described thus: ABTS+ radical scavenging assay. The settings on record: for IC50: read-out: ABTS+ IC50 (μM) ± SD. As to the method: Various concentrations of the compounds (60 μL each) were then combined with 150 μL of the diluted ABTS^+ solution. The reaction was maintained in the dark at 30 °C for 6 min. Afterwards, the absorbance was determined at 734 nm with a microplate reader. The calculation of ABTS radical scavenging activity followed the same method as for DPPH radical scavenging activity. IC50 values were determined using GraphPad Prism 7.0, and all tests were conducted in triplicate.

In data set [5] the test system is 6-OHDA-induced PC12 cells. In words: Neuroprotective effect in 6-OHDA-induced PC12 cells (CCK-8 cell viability). Type of data set: cell-based. As to the method: Two-dimensional (2D) cell culture models were used for performing cell viability assays. Approximately 10,000 PC12 cells (Fenghui, Changsha, China) were seeded into each well of a 96-well plate. The cells underwent pre-treatment with the test compounds for 2 h at 37 °C. […] The plate was incubated at 37 °C for 1 h after adding 10 μL of CCK-8 solution (ProteinTech, Chicago, USA) to each well. Then, each well's optical density (OD) was measured at 450 nm using a multimode microplate reader (Waltham, MA, USA).

Another data set has as its system PC12 cell. Put plainly: Cytotoxicity experiment on PC12 cells. The settings on record: 0.5–100 μM. The class given is cell-based.
Data set [6] is described as follows: DPPH radical scavenging assay. The settings on record: for IC50: read-out: DPPH IC50 (μM) ± SD. On the procedure:
The antioxidative capacity of the obtained compounds was carried out through DPPH radical scavenging assays and ABTS assay (Macklin, Shanghai, China) with some modifications, and Vitamin C was used as the positive control. In the DPPH assay, 60 μL of the isolates at varying concentrations were mixed with 100 μL of 100 μM DPPH solution in ethanol in a 96-well microplate. The mixture was shaken for 10 s and then allowed to sit in darkness at 30 °C for 5 min. Subsequently, the absorbance was determined using a microplate reader at a wavelength of 517 nm. The radical-scavenging activity of the compounds was assessed using the formula RSA (%) = [(AB-AA)/AB] × 100%, where AA was the absorbance of the sample and AB was the absorbance of the blank sample. The IC50 value was calculated with GraphPad Prism 7.0, and all experiments were conducted in triplicate.

The mark [7] stands for this setting: MAO-B, dose–response, read-out: IC50 (μM) ± SD.
Where [8] appears, read: MAO-B, 50 μM, read-out: Inhibition rate ± SD (%) (50 μM).

Turning to `CCC1=C(/C=C/C(O)CCCCCCCC(=O)OC)CCC1=O` (stereo not drawn) [10/11, phytoprostanes B1 type II], the IC50 on MAO-B [1] (setting [7]) came out at 37.7 ± 1.57 µM. Further, the “Inhibition mechanism against MAO-B” value on MAO-B [2] is reported as “competitive MAO-B inhibitors; also recorded: competitive inhibition mechanism”.
Take `CC(=O)/C=C/C/C(C)=C/CC/C(C)=C/CC/C(C)=C/CC/C(C)=C/CO` [Compound 1, Nicotiazanorpenoid A]: at MAO-B [1] (setting [8]), the inhibition at 50 µM is 15.4 ± 8.16%.
As to `C=C(C)/C=C/[C@@H](CC/C(C)=C/CC/C(C)=C/C=O)C(C)C` [Compound 2, 2,6,11,13-tetradecatetraenal-3,7,13-trimethyl-10-(1-methylethyl)], on MAO-B [1] (setting [8]), the inhibition at 50 µM came to 11 ± 3.99%.
With `COc1cc2ccc(=O)oc2cc1O` [Compound 3, scopoletin], the Ki at murine MAO-B was 22 µM; at human MAO-B it was 20.7 µM; on MAO-B [2] (MAO-B, read-out: Ki value (equilibrium constant for inhibitor-enzyme binding)), 78.8 µM. The “Selectivity for MAO-B over MAO-A” value in the data set on MAO-B over MAO-A is listed as “approximately 3.5 fold”. For the same compound, the IC50 is 40.2 ± 1.21 µM on MAO-B [1] and 27.7 ± 1.2 µM in data set [4]. The Dopamine levels entry in data set [3] is on record as “significantly elevated”. The “Striatal metabolite 3,4-dihydroxyphenylacetic acid (DOPAC)” value in data set [3] was “reducing”. In addition, the “ABTS+ RSA ± SD (50 μM)” value in data set [4] was determined as 68.91 ± 1.75%. Also, the “Inhibition mechanism against MAO-B” value on MAO-B [2] is “non-competitive inhibitor”.
For the compound `CC1=CC(=O)CC(C)(C)[C@H]1CC[C@@H](C)O` [Compound 4, blumenol C], the inhibition at 50 µM at MAO-B [1] (setting [8]) stood at 16.5 ± 7.04%.
On to `CC1=CC(=O)CC(C)(C)[C@H]1/C=C/[C@@H](C)O` [Compound 5, (6R,9S)-3-oxo-α-ionol], for which the inhibition at 50 µM at MAO-B [1] (setting [8]) turned out to be 24 ± 8.05%.
The same measure, in the same setting: the same measure for `OCCc1ccccc1` [Compound 7, 2-phenylethanol]: 14.4 ± 4.04%.
As for `CC(C)c1cc2c(cc1O)[C@@]1(C)CCCC(C)(C)[C@@H]1CC2` [Compound 8, ferruginol], on MAO-B [1] (read-out: Inhibition rate ± SD (%) (50 μM), MAO-B, 50 μM), the inhibition at 50 µM came out at 17.5 ± 1.5%.
Take `CC(C)c1cc2c(cc1O)[C@@]1(C)CCCC(C)(C)[C@@H]1C=C2` [Compound 9, 6,7-dehydroferruginol]: the inhibition at 50 µM at MAO-B [1] (setting [8]) turned out to be 7.04 ± 4.08%.
On to `CC/C=C\C/C=C\C/C=C\CCCCCC(=O)OC` [Compound 14, Methyl (7Z,10Z,13Z)-7,10,13-hexadecatrienoate], for which the inhibition at 50 µM at MAO-B [1] (setting [8]) was greater than 30%. Besides, the IC50 at MAO-B [1] (setting [7]) is 201 ± 7.03 µM. Moreover, the “Neuroprotective effect at various concentrations” value in [5] (0.5–100 μM) is “enhanced cell viability across all tested concentrations, except 50 μM”. For the same compound, the viability at 5 µM in data set [5] (Rattus norvegicus, PC-12, 5 μM (best concentration)) amounted to 93.9%. In data set [5] (Rattus norvegicus, PC-12, 100 μM, model group 63.58%), this compound showed a viability at 100 µM of 87.1%. Further, in the data set with PC12 cell, the Cytotoxicity entry was “extremely low cytotoxicity”.
With `CCCCC/C=C\C/C=C\CCCCCCCC(=O)O` [Compound 15, linolic acid], the inhibition at 50 µM on MAO-B [1] (setting [8]) stood at 18 ± 4.32%.
`COCc1ccc(C=O)[nH]1` [Compound 16, 5-(methoxymethyl)-1H-pyrrole-2-carboxaldehyde]: at MAO-B [1] (setting [8]), the inhibition at 50 µM was determined as 22.2 ± 5.24%.
On the same count and under the same terms, the figure for `COC(=O)c1ccc(O)cn1` [Compound 17, methyl 5-hydroxypicolinate] is 17.1 ± 5.06%; for `O=C(O)c1ccc(O)cc1` [Compound 18, paraben-acid] it is 8.29 ± 3.9%.
As for `COc1cc(C(CO)OC)ccc1O` (stereo not drawn) [Compound 19, 4-hydroxy-β,3-dimethoxybenzeneethanol], at MAO-B [1] (setting [8]), the inhibition at 50 µM came out at 3.71 ± 4.89%. In data set [4], the “ABTS+ RSA ± SD (50 μM)” value is recorded as 59.17 ± 3.59% and the IC50 turned out to be 84.06 ± 0.76 µM.
In the same order, the values of `COc1cc(CCO)ccc1O` [Compound 20, homovanillic alcohol] are 2.98 ± 2.8%, 57.38 ± 1.01% and 60.5 ± 1.18 µM.
Turning to `COc1cc(C(=O)CCO)ccc1O` [Compound 21, β-hydroxypropiovanillone], the inhibition at 50 µM at MAO-B [1] (read-out: Inhibition rate ± SD (%) (50 μM)) amounted to 11.2 ± 1.81%. For the same compound, in [4], the “ABTS+ RSA ± SD (50 μM)” value is on record as 36.36 ± 1.01% and the IC50 came to 348 ± 17.5 µM.
Turning to `O=C1C=CCCN1` [Compound 22, 5,6-dihydropyridin-2(1H)-one], the inhibition at 50 µM at MAO-B [1] (setting [8]) was found to be 1.05 ± 3.46%.
Take `C#CCN[C@@H]1CCc2ccccc21` [Rasagiline, rasagiline, reference compound]: the Cell viability in data set [5] (positive control, abstract: at equivalent concentrations) was determined as 88.36%.
Regarding `O=C1O[C@H]([C@@H](O)CO)C(O)=C1O` [Vitamin C, ascorbic acid, reference compound], in data set [4], the “ABTS+ RSA ± SD (50 μM)” value was determined as 99.80 ± 0.09% and the IC50 turned out to be 14.46 ± 0.03 µM. Further, in data set [6], the “DPPH RSA ± SD (50 μM)” value was found to be 99.97 ± 0.05% and the IC50 was 9.12 ± 0.25 µM.
The matching figures for isoferulic acid [Compound 6]: 92.90 ± 0.45%, 18.1 ± 2.49 µM, 36.00 ± 1.01% and 152 ± 1.75 µM.
